# Tested on: ddY mice
# Assay: Oxylipin analysis of plasma and brain regions of juvenile offspring after maternal glyphosate exposure
# Assay type: in vivo, mouse
# Conditions: juvenile offspring (P28), maternal 0.095% glyphosate
# From the text: Collection of blood and brain samples and oxylipin analysis. Water or 0.095% glyphosate was given to pregnant mice from E5 to P21, as described above. The male offspring were separated from their mothers at weaning (P21). At juvenile (P28) stage, mice were deeply anesthetized with isoflurane and plasma was collected. Subsequently, brains were removed from the skulls. For Western blot analysis, brain regions such as prefrontal cortex (PFC), hippocampus, and striatum, were dissected from brain on ice. The samples were stored at −80° C. before assay. For oxylipin analysis, plasma was collected after isoflurane anesthesia at juvenile (P28) stage. Subsequently, PFC, hippocampus, and striatum were dissected from brain on ice, and the samples were stored at −80° C. before assay. Measurement of eicosanoids in the plasma and brain regions was performed at UC Davis using the previous method (4).
compound,measurement,setting,value
O=C(O)CNCP(=O)(O)O [glyphosate],"4,5-DiHDPE level",plasma,1.527 ± 0.112 nmol/mL
same,5(6)-EpETrE level,plasma,24.279 ± 3.524 nmol/mL
same,"5,6-DiHETrE level",plasma,0.417 ± 0.047 nmol/mL
same,5-HEPE level,plasma,8.117 ± 1.251 nmol/mL
same,5-HETE level,plasma,2.137 ± 0.335 nmol/mL
same,5-oxo-ETE level,plasma,20.987 ± 2.839 nmol/mL
same,6-keto-PGF1a level,plasma,0.252 ± 0.043 nmol/mL
same,7(8)-EpDPE level,plasma,195.343 ± 16.718 nmol/mL
same,8(9)-EpETE level,plasma,0.863 ± 0.138 nmol/mL
same,8(9)-EpETrE alt level,plasma,3.325 ± 0.409 nmol/mL
same,8(9)-EpETrE level,plasma,13.892 ± 2.938 nmol/mL
same,8-HEPE level,plasma,7.652 ± 0.970 nmol/mL
same,8-HETE level,plasma,7.349 ± 0.718 nmol/mL
same,9(10)-EpOME level,plasma,28.326 ± 4.243 nmol/mL
same,"9,10,13-TriHOME level",plasma,5.220 ± 0.403 nmol/mL
same,"9,12,13-TriHOME level",plasma,12.758 ± 1.096 nmol/mL
same,9-HETE level,plasma,0.056 ± 0.012 nmol/mL
same,9-HODE level,plasma,17.293 ± 2.482 nmol/mL
same,10(11)-EpDPE level,plasma,13.285 ± 1.234 nmol/mL
same,11(12)-EpETE level,plasma,2.579 ± 0.284 nmol/mL
same,11(12)-EpETrE level,plasma,6.360 ± 1.002 nmol/mL
same,"11,12-,15-TriHETrE level",plasma,0.300 ± 0.072 nmol/mL
same,"11,12-DiHETrE level",plasma,0.394 ± 0.045 nmol/mL
same,11-HETE level,plasma,1.949 ± 0.131 nmol/mL
same,12(13)-EpOME level,plasma,38.512 ± 4.378 nmol/mL
same,12-HEPE level,plasma,92.380 ± 15.026 nmol/mL
same,12-HETE level,plasma,90.069 ± 11.494 nmol/mL
same,12-oxo-ETE level,plasma,500.173 ± 99.031 nmol/mL
same,13(14)-EpDPE level,plasma,8.177 ± 0.873 nmol/mL
same,"13,14-DiHDPE level",plasma,0.530 ± 0.056 nmol/mL
same,13-HODE level,plasma,66.733 ± 9.200 nmol/mL
same,14(15)-EpETE level,plasma,2.316 ± 0.258 nmol/mL
same,14(15)-EpETrE level,plasma,4.038 ± 0.637 nmol/mL
same,"14,15-DiHETrE level",plasma,0.575 ± 0.051 nmol/mL
same,15(16)-EpODE level,plasma,14.493 ± 1.929 nmol/mL
same,15(S)-HETrE level,plasma,0.743 ± 0.167 nmol/mL
same,15-HETE level,plasma,1.985 ± 0.228 nmol/mL
same,15-oxo-ETE level,plasma,0.746 ± 0.105 nmol/mL
same,16(17)-EpDPE level,plasma,7.978 ± 0.799 nmol/mL
same,"16,17-DiHDPE level",plasma,1.955 ± 0.201 nmol/mL
same,17(18)-EpETE level,plasma,4.845 ± 0.480 nmol/mL
same,17-HDoHE level,plasma,1386.287 ± 316.090 nmol/mL
same,19(20)-EpDPE level,plasma,19.092 ± 1.307 nmol/mL
same,"19,20-DiHDPE level",plasma,6.507 ± 0.444 nmol/mL
same,EKODE level,plasma,12.405 ± 2.140 nmol/mL
same,LTB3 level,plasma,2.540 ± 0.525 nmol/mL
same,PGD2 level,plasma,0.138 ± 0.010 nmol/mL
same,PGE2 level,plasma,0.704 ± 0.010 nmol/mL
same,PGF2a level,plasma,0.462 ± 0.048 nmol/mL
same,TXB2 level,plasma,0.548 ± 0.069 nmol/mL
same,"4,5-DiHDPE level",striatum,1.331 ± 0.320 pmol/g
same,5(6)-EpETrE level,striatum,2286.424 ± 589.971 pmol/g
same,"5,6-DiHETrE level",striatum,0.655 ± 0.058 pmol/g
same,5-HEPE level,striatum,1.966 ± 0.253 pmol/g
same,5-HETE level,striatum,21.009 ± 1.874 pmol/g
same,5-oxo-ETE level,striatum,177.806 ± 23.342 pmol/g
same,6-keto-PGF1a level,striatum,70.151 ± 4.942 pmol/g
same,7(8)-EpDPE level,striatum,3684.482 ± 1464.079 pmol/g
same,8(9)-EpETE level,striatum,2.863 ± 1.693 pmol/g
same,8(9)-EpETrE alt level,striatum,256.271 ± 63.811 pmol/g
same,8(9)-EpETrE level,striatum,7513.6 ± 2879.9 pmol/g
same,8-HEPE level,striatum,1.198 ± 0.106 pmol/g
same,8-HETE level,striatum,7.063 ± 1.134 pmol/g
same,9(10)-EpOME level,striatum,64.909 ± 24.089 pmol/g
same,"9,10,13-TriHOME level",striatum,35.219 ± 5.532 pmol/g
same,"9,12,13-TriHOME level",striatum,59.110 ± 9.487 pmol/g
same,9-HETE level,striatum,2.001 ± 0.403 pmol/g
same,9-HODE level,striatum,42.211 ± 2.648 pmol/g
same,10(11)-EpDPE level,striatum,283.118 ± 111.688 pmol/g
same,11(12)-EpETE level,striatum,2.950 ± 0.707 pmol/g
same,11(12)-EpETrE level,striatum,1056.655 ± 383.807 pmol/g
same,"11,12-,15-TriHETrE level",striatum,28.513 ± 2.432 pmol/g
same,"11,12-DiHETrE level",striatum,1.461 ± 0.114 pmol/g
same,11-HETE level,striatum,263.508 ± 14.043 pmol/g
same,12(13)-EpOME level,striatum,75.548 ± 26.478 pmol/g
same,12-HEPE level,striatum,16.777 ± 3.707 pmol/g
same,12-HETE level,striatum,402.213 ± 68.023 pmol/g
same,12-oxo-ETE level,striatum,2383.322 ± 205.470 pmol/g
same,13(14)-EpDPE level,striatum,196.586 ± 72.402 pmol/g
same,"13,14-DiHDPE level",striatum,0.849 ± 0.088 pmol/g
same,13-HODE level,striatum,61.551 ± 3.988 pmol/g
same,14(15)-EpETE level,striatum,2.368 ± 0.640 pmol/g
same,14(15)-EpETrE level,striatum,991.031 ± 327.438 pmol/g
same,"14,15-DiHETrE level",striatum,2.399 ± 0.255 pmol/g
same,15(16)-EpODE level,striatum,0.837 ± 0.335 pmol/g
same,15(S)-HETrE level,striatum,13.863 ± 0.898 pmol/g
same,15-HETE level,striatum,312.592 ± 16.237 pmol/g
same,15-oxo-ETE level,striatum,15.203 ± 3.961 pmol/g
same,16(17)-EpDPE level,striatum,186.178 ± 73.985 pmol/g
same,"16,17-DiHDPE level",striatum,1.427 ± 0.114 pmol/g
same,17(18)-EpETE level,striatum,7.282 ± 2.840 pmol/g
same,17-HDoHE level,striatum,7832.089 ± 1004.299 pmol/g
same,19(20)-EpDPE level,striatum,373.365 ± 128.458 pmol/g
same,"19,20-DiHDPE level",striatum,8.734 ± 0.672 pmol/g
same,EKODE level,striatum,14.223 ± 1.256 pmol/g
same,LTB3 level,striatum,74.130 ± 28.033 pmol/g
same,PGD2 level,striatum,404.389 ± 30.557 pmol/g
same,PGE2 level,striatum,61.254 ± 3.057 pmol/g
same,PGF2a level,striatum,367.138 ± 24.248 pmol/g
same,TXB2 level,striatum,219.314 ± 15.121 pmol/g

# Reference: patent US12357598B2, “Treatment of neurodevelopmental disorders” (THE REGENTS OF THE UNIVERSITY OF CALIFORNIA, priority 2018, dated 2025)
